Experimental data published in PubChem BioAssay (NCI).
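1) Cells in 96-well plates. 2) Compound, 48 h, 5 concentrations. 3) Linear interpolation between surrounding doses. 4) Unreached endpoint = highest concentration. Here, GI50 denotes the concentration required for 50% inhibition of growth. TGI denotes the concentration required for complete inhibition of growth.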

Columns and labels:
Assay in all cases: NCI tumour cell line growth inhibition, 48 h
786-0 renal = system: 786-0 renal
OVCAR-4 ovarian = system: OVCAR-4 ovarian
SF-539 CNS = system: SF-539 CNS
BT-549 breast = system: BT-549 breast
NCI-H23 lung = system: NCI-H23 lung
RXF 393 renal = system: RXF 393 renal
SNB-75 CNS = system: SNB-75 CNS
MALME-3M melanoma = system: MALME-3M melanoma
DU-145 prostate = system: DU-145 prostate
LOX IMVI melanoma = system: LOX IMVI melanoma

Row | SMILES | GI50 (786-0 renal) [µM] | TGI (786-0 renal) [µM] | GI50 (OVCAR-4 ovarian) [µM] | TGI (OVCAR-4 ovarian) [µM] | GI50 (SF-539 CNS) [µM] | TGI (SF-539 CNS) [µM] | GI50 (BT-549 breast) [µM] | TGI (BT-549 breast) [µM] | GI50 (NCI-H23 lung) [µM] | TGI (NCI-H23 lung) [µM] | GI50 (RXF 393 renal) [µM] | TGI (RXF 393 renal) [µM] | GI50 (SNB-75 CNS) [µM] | TGI (SNB-75 CNS) [µM] | GI50 (MALME-3M melanoma) [µM] | TGI (MALME-3M melanoma) [µM] | GI50 (DU-145 prostate) [µM] | TGI (DU-145 prostate) [µM] | GI50 (LOX IMVI melanoma) [µM] | TGI (LOX IMVI melanoma) [µM]
1 | O=P(O)(O)OCC1OC(n2cnc3c(NCc4ccco4)ncnc32)C(O)C1O (stereo not given) | 3.35 | > 49.9 | 2.62 | > 41 | 2.7 | 12.5 | 0.575 | 3.85 | 3.84 | > 70.5 | 0.965 | 4.95 | 4.18 | > 30.6 | 5.09 | 40.9 | 0.57 | 2.4 | 0.374 | 1.47
2 | C=C(C)[C@@H]1CC[C@]2(COCCCNCCCN)CC[C@]3(C)[C@H](CC[C@@H]4[C@@]5(C)CC[C@H](OCCCN)C(C)(C)[C@@H]5CC[C@]43C)[C@@H]12 | 0.825 | 1.5 | 0.934 | 1.78 | 0.891 | 1.59 | 6.86 | 14.2 | 0.934 | 1.79 | 0.825 | 1.61 | 0.778 | 1.57 | 0.801 | 1.53 | 0.895 | 1.62 | 0.846 | 1.57
3 | CCN(CC)CCC(=O)OC1C(C)=CC(C)C(=O)CC(C(C)CC2CCC(O)C(OC)C2)OC(=O)C2CCCCN2C(=O)C(=O)[C@@]2(O)OC(CCC2C)CC(OC)\C(C)=C/C=C/C=C/C(C)CC(C)C(=O)C1OC (stereo not given in full) |  | 22.4 |  | 2.27 |  | 15.2 |  | 15.5 |  | 26.4 |  | 15.2 |  | 0.971 |  | 18.8 |  | 19.7 |  | 19.2
4 | Nc1ncnc2c1c(-c1ccc(Oc3ccccc3)cc1)nn2C[C@H]1SSC[C@@H]1O | 3.09 | 12 | 1.44 | 19.8 | 1.41 | 12 | 3.63 | 13.5 | 0.83 | 21.4 | 1.74 | 5.75 | 3.02 | 14.8 | 0.826 | 3.94 | 1.7 | 10.6 | 0.257 | 1.79
5 | COc1cc2c3c(n(CCCCNC(=O)OC(C)(C)C)c(=O)c2cc1OC)-c1cc2c(cc1C3=O)OCO2 | 25 | > 100 | > 100 | > 100 | 8.39 | > 100 | > 100 | > 100 | > 100 | > 100 | 17.5 | 62.1 | 33.2 | > 100 | > 100 | > 100 | > 100 | > 100 | > 100 | > 100
6 | Oc1[nH]c(N=C2N=c3ccccc3=N2)c2ccccc12 | 17.2 | 39.6 | 6.84 | 24 | 14.3 | 40.2 | 16.7 | 54.5 | 7.29 | 52.6 | 8.85 | 22.2 | 10.9 | 31.5 | 9.69 | 37.6 | 10.3 | 22.6 | 4.78 | 24.9
